Measured values published in patent publication US20060193796A1, “Method for refining ultraviolet absorbent, ultraviolet absorbent and cosmetic material” (priority 2003, published 2006).

Assays:
[1] = Odor evaluation for ultraviolet absorbers after a time has elapsed (storage for 3 weeks); type: physicochemical; details: 10 ranks: 1, no odor, 10, very intense odor; for Odor evaluation for ultraviolet absorber after a time has elapsed: In the dark: stored in the dark at 50° C. for 3 weeks; for Odor evaluation for ultraviolet absorber after a time has elapsed: In the light: stored in the light at 20° C., 1000 lux for 3 weeks
Procedure: Odor Evaluation for Ultraviolet Absorbers After a Time Has Elapsed 100 ml of each ultraviolet absorber was filled into two different 200-ml sample bottles, and one bottle was stored in the dark (at 50° C.) and the other in the light (at 20° C., 1000 lux) for 3 weeks. The intensity of overall odor and that of irritating odor were evaluated using one of 10 ranks: 1, no odor; . . .; 10, very intense odor and scored.

[2] = Hue evaluation for ultraviolet absorbers, Hazen color (APHA), Lovibond Nessleriser 2150; type: physicochemical
Procedure: Hue Evaluation for Ultraviolet Absorbers
Hazen color (APHA) was measured using Lovibond Nessleriser 2150.

Compound	Odor evaluation for ultraviolet absorber after a time has elapsed: In the dark [1]	Odor evaluation for ultraviolet absorber after a time has elapsed: In the light [1]	Evaluation for ultraviolet absorber: Hue [2] [APHA]
CCCCC(CC)COC(=O)C=Cc1ccc(OC)cc1 (stereo not drawn) [compound 9, 2-ethylhexyl p-methoxycinnamate]	2	3	10
CCCCC(CC)COC(=O)C=Cc1ccc(OC)cc1 (stereo not drawn) [compound 6, 2-ethylhexyl p-methoxycinnamate]	3	2	20
CCCCC(CC)COC(=O)C=Cc1ccc(OC)cc1 (stereo not drawn) [compound 2, 2-ethylhexyl p-methoxycinnamate]	5	4	10
CCCCC(CC)COC(=O)C=Cc1ccc(OC)cc1 (stereo not drawn) [compound 4, 2-ethylhexyl p-methoxycinnamate]	4	3	10
CCCCC(CC)COC(=O)C=Cc1ccc(OC)cc1 (stereo not drawn) [Example 1, 2-ethylhexyl p-methoxycinnamate]	2	1	10
CCCCC(CC)COC(=O)C=Cc1ccc(OC)cc1 (stereo not drawn) [Example 2, 2-ethylhexyl p-methoxycinnamate]	2	1	10
CCCCC(CC)COC(=O)C=Cc1ccc(OC)cc1 (stereo not drawn) [Example 3, 2-ethylhexyl p-methoxycinnamate]	2	1	10

Other lines, results leading:

Odor evaluation for ultraviolet absorber after a time has elapsed: In the dark [1]	Odor evaluation for ultraviolet absorber after a time has elapsed: In the light [1]	Evaluation for ultraviolet absorber: Hue [2] [APHA]	Compound
5	4	40	CCCCC(CC)COC(=O)C=Cc1ccc(OC)cc1 (stereo not drawn) [compound 1, 2-ethylhexyl p-methoxycinnamate]
4	4	40	CCCCC(CC)COC(=O)C=Cc1ccc(OC)cc1 (stereo not drawn) [compound 3, 2-ethylhexyl p-methoxycinnamate]
3	2	20	CCCCC(CC)COC(=O)C=Cc1ccc(OC)cc1 (stereo not drawn) [compound 8, 2-ethylhexyl p-methoxycinnamate]
3	2	10	CCCCC(CC)COC(=O)C=Cc1ccc(OC)cc1 (stereo not drawn) [compound 7, 2-ethylhexyl p-methoxycinnamate]
2	1	10	CCCCC(CC)COC(=O)C=Cc1ccc(OC)cc1 (stereo not drawn) [Example 4, 2-ethylhexyl p-methoxycinnamate]
3	3	20	CCCCC(CC)COC(=O)C=Cc1ccc(OC)cc1 (stereo not drawn) [compound 5, 2-ethylhexyl p-methoxycinnamate]
